Here are results for 22 compounds from patent US11753374B2, “Compounds for the treatment of acute and chronic kidney disease” (Southern Research Institute, priority 2020, dated 2023).

Where only a bound is given, the exact number is not on record here.

This assay has as its system heme oxygenase-1 (HO-1). Put plainly: High throughput screen: HO-1 promoter/enhancer luciferase reporter (pHOGL3/4.5+220) in stable HEK293 cells. Particulars: Homo sapiens; for EC50: Table 1, evaluation of biaryl aminomaleimides, HO-1 induction; for Emax: Table 1, unit inferred, Emax as % of 5 μM hemin. It is filed as cell-based. As for the experimental part:
The generation of the pHOGL3/4.5+220 construct is described in Deshane, et al. (2010) “SpI regulates chromatin looping between an intronic enhancer and distal promoter of the human heme oxygenase-1 gene in renal cells” J Biol Chem 285(22): 16476-86. See also FIG. 1.
Briefly, BamHI sites were added to the 4.5-kb PCR product generated by long-range PCR from a bacterial artificial chromosome clone containing portions of chromosome 22 (accession no. Z82244), including the HO-1 gene. This fragment was cloned into the BglII restriction site of the multiple cloning region to make the parental clone (pHOGL3/4.5). The 220-bp intronic enhancer was amplified with SalI sites on either end and cloned into the SalI site of the vector to generate pHOGL3/4.5+220.
In order to generate cells that stably express luciferase expression vectors that lack a mammalian antibiotic selection cassette, HEK293 cells were co-transfected with either pHOGL3/4.5+220 (Deshane et al, 2010) or the Triple Mutant construct (Liby, Hock et al, 2005; Hock et al, 2007) and pcDNA3.1 Zeocin using Lipofectamine 2000. Cells were cultured in Zeocin (400 ug/ml; Invitrogen) for selection. Individual clones were sorted by flow cytometry and plated into a 96-well plate at a density of one cell per well. Clones were maintained and expanded in complete media (DMEM/10% FBS/1× antibiotic-antimycotic) supplemented with 100 ug/ml Zeocin, and incubated at 37° C. in 5% carbon dioxide. Incorporation of the Luciferase expression vectors was validated by assaying for luciferase.
A library of over 150,000 compounds, as well as a library of over 4,000 FDA approved compounds, were used in the HTS assay. […] This led to the identification of approximately 800 compounds that induce HO-1 and have desirable chemical structures. […] The In-Cell Western assay was optimized to screen for endogenous HO-1 in a high throughput platform, and results were validated by Western blot, real-time PCR, and enzyme activity assays. Additional RNA sequencing studies highlighted a role for the transcription factor Nrf2 and other targets in HO-1 induction by several small molecules.

What is called EC50 is the concentration at which the effect is half-maximal. What is called Emax is the greatest response seen or fitted, relative to the assay's reference. Consider `COc1c(F)cc(N2C(=O)C=C(Nc3cc(F)c(O)c(F)c3)C2=O)cc1F` [Compound 49], for which the concentration giving a half-maximal response (EC50) turned out to be 8.37 µM and the maximal effect (Emax) worked out at 69.6%.

In the case of `O=C1C=C(Nc2cc(F)c(O)c(F)c2)C(=O)N1c1ccc(O)cc1` [Compound 50], the EC50 is 15.3 µM and the maximal effect (Emax) stood at 75.2%.

Take `NC(=O)c1cccc(N2C(=O)C=C(Nc3cc(F)c(O)c(F)c3)C2=O)c1` [Compound 51]: the concentration giving a half-maximal response (EC50) stood at 15.4 µM and the Emax was found to be 62.4%.

Turning to `COc1cc(N2C(=O)C=C(Nc3cc(F)c(O)c(F)c3)C2=O)ccc1F` [Compound 52], the EC50 was 14 µM and the Emax came out at 53.1%.

For `CN(C)c1ccc(N2C(=O)C=C(Nc3cc(F)c(O)c(F)c3)C2=O)cc1` [Compound 53], the EC50 turned out to be 3.35 µM and the Emax was 94.1%.

For `COc1ccccc1N1C(=O)C=C(Nc2cc(F)c(O)c(F)c2)C1=O` [Compound 54], the EC50 was 20 µM and the Emax was determined as 54.9%.

`O=C1C=C(Nc2cc(F)c(O)c(F)c2)C(=O)N1c1ccc(OC(F)F)cc1` [Compound 55]: the EC50 was 2.27 µM and the maximal response (Emax) was determined as 93.3%.

For the compound `COc1ccc(N2C(=O)C=C(Nc3cc(F)c(O)c(F)c3)C2=O)cc1C#N` [Compound 56], the 50% effective concentration (EC50) worked out at 8.39 µM and the Emax was 36.1%.

As to `COc1ccc(N2C(=O)C=C(Nc3cc(F)c(O)c(F)c3)C2=O)cc1F` [Compound 57], the EC50 was 5.67 µM and the Emax came out at 98.7%.

Regarding `CC(C)(C)c1ccc(N2C(=O)C=C(Nc3cc(F)c(O)c(F)c3)C2=O)cc1` [Compound 58], the half-maximal effective concentration (EC50) came to 1.73 µM and the maximal effect (Emax) came to 53.3%.

Regarding `O=C1C=C(Nc2cc(F)c(O)c(F)c2)C(=O)N1c1ccc(-c2cscn2)cc1` [Compound 59], the EC50 worked out at 9.22 µM and the Emax came to 43.9%.

Consider `O=C1C=C(Nc2cc(F)c(O)c(F)c2)C(=O)N1c1ccc(N2CCOCC2)cc1` [Compound 60], for which the EC50 was 22.2 µM and the maximum response (Emax) stood at 66.9%.

For `O=C1C=C(Nc2cc(F)c(O)c(F)c2)C(=O)N1c1ccc(Oc2ccccc2)cc1` [Compound 61], the 50% effective concentration (EC50) amounted to 3.77 µM and the Emax was found to be 33.4%.

As to `O=C1C=C(Nc2cc(F)c(O)c(F)c2)C(=O)N1c1ccc(-c2ccccc2)cc1` [Compound 62], the EC50 is 2.75 µM and the Emax is 34.6%.

On to `O=C1C=C(Nc2cc(F)c(O)c(F)c2)C(=O)N1c1cccc(F)c1` [Compound 63], for which the concentration giving a half-maximal response (EC50) is 3.19 µM and the maximum response (Emax) worked out at 30%.

`O=C1C=C(Nc2cc(F)c(O)c(F)c2)C(=O)N1c1cccc(C(F)(F)F)c1` [Compound 64]: the EC50 came to 3.33 µM and the Emax is 23.9%.

In the case of `COC(=O)c1cccc(N2C(=O)C=C(Nc3cc(F)c(O)c(F)c3)C2=O)c1` [Compound 65], the EC50 amounted to 15.6 µM and the maximal effect (Emax) came to 42.8%.

As to `N#Cc1cccc(N2C(=O)C=C(Nc3cc(F)c(O)c(F)c3)C2=O)c1` [Compound 66], the 50% effective concentration (EC50) was over 50 µM.

With `O=C1C=C(Nc2cc(F)c(O)c(F)c2)C(=O)N1C1CCCCC1` [Compound 67], the EC50 was over 50 µM and the Emax came to 25.6%.

Take `O=C1C=C(Nc2cc(F)c(O)c(F)c2)C(=O)N1C1CC1` [Compound 68]: the concentration for a half-maximal effect (EC50) was over 50 µM.

`O=C1C=C(Nc2ccc(O)cc2)C(=O)N1c1cc(F)c(O)c(F)c1` [Compound 69]: the EC50 is 16.7 µM and the maximum response (Emax) turned out to be 105%.

Consider `O=C1C=C(Nc2ccccc2)C(=O)N1c1cc(F)c(O)c(F)c1` [Compound 70], for which the half-maximal effective concentration (EC50) is over 50 µM.
